The source of these data is ChEMBL document CHEMBL1908284, “Rational use of in vitro P-glycoprotein assays in drug discovery” (J Pharmacol Exp Ther, 2001).

By Papp A→B is commonly meant how fast a substance crosses the layer from the apical side. The efflux ratio is the permeability from basolateral to apical divided by that in the opposite direction, in the common usage. One may read the Papp B→A as how fast a substance crosses the layer from the basolateral side.

Series [1] deals with T1, ATP-dependent translocase ABCB1 (MDR1) (Homo sapiens, UniProt P08183). In words: in vitro. The following applies: dog.
Description: Apparent permeability (Papp) from apical to basolateral side determined in MDR1-MDCKII cells
The target in series [2] is T2, ATP-dependent translocase ABCB1 (Homo sapiens, UniProt P08183). As to conditions: spodoptera frugiperda, sf9, 20 µM.
Description: Drug-stimulated Pgp ATPase activity ratio determined in MDR1-Sf9 cell membranes with test compound at a concentration of 20uM
Series [3] deals with T1, ATP-dependent translocase ABCB1 (MDR1). The series can be described thus: in vitro. The following applies: dog. The source holds these as a separate data set.
Description: Ratio of apparent permeability from basolateral to apical side over apical to basolateral side determined in MDR1-MDCKII cells
The target is the same in series [4]. The series can be described thus: in vitro. As to conditions: dog. This is another data set of the same source.
Description: Apparent permeability (Papp) from basolateral to apical side determined in MDR1-MDCKII cells
The target in series [5] is T2, ATP-dependent translocase ABCB1. The series can be described thus: TP_TRANSPORTER: ATP hydrolysis in MDR1-expressing Sf9 cells. The class given is functional.
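For Ratio ATPase activity in this document: Compound-stimulated ATPase activity measured in membrane preparations of MDR1-expressing Sf9 cells.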

T1 sequence (P08183 whole entry): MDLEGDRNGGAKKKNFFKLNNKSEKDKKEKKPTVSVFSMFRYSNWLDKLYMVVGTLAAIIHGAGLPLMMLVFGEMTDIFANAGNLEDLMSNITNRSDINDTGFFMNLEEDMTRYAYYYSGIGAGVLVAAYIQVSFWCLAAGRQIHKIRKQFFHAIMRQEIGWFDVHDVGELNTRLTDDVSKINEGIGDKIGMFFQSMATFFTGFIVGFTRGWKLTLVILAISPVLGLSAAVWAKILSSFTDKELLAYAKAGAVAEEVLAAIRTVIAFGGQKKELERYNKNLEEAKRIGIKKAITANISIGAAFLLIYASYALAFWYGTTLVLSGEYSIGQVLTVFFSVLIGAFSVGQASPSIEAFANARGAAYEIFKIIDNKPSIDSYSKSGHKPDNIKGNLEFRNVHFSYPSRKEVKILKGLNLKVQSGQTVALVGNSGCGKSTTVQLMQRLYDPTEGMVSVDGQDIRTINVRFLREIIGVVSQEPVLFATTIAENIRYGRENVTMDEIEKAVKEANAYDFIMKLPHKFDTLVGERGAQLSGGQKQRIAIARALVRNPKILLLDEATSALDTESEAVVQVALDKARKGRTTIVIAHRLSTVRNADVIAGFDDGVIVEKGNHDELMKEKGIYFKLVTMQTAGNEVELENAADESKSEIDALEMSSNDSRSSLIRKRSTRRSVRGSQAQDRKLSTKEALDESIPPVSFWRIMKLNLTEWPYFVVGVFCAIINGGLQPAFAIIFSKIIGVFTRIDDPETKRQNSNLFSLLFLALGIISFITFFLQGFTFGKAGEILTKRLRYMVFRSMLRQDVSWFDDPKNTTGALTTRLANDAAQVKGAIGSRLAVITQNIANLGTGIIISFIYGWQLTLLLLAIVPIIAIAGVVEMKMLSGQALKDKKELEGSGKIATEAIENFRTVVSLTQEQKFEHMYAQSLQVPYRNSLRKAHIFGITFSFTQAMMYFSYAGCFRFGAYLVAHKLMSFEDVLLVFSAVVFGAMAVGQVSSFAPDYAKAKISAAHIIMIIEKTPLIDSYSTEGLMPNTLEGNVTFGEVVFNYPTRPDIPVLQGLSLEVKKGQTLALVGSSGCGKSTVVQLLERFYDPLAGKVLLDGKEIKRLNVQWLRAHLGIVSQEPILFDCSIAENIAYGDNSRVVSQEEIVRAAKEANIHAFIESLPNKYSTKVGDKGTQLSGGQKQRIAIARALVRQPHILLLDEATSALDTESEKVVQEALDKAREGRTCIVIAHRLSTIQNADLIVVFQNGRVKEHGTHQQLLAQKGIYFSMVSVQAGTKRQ
T2 sequence (P08183 whole entry): as above

On to `CC(C)(C)NC(=O)[C@@H]1C[C@@H]2CCCC[C@@H]2CN1C[C@@H](O)[C@H](Cc1ccccc1)NC(=O)[C@H](CC(N)=O)NC(=O)c1ccc2ccccc2n1`, for which the Papp A→B in series [1] (MDCK-MDR1, Papp) came out at 0.301 ×10⁻⁶ cm/s. The molecule also yielded a Ratio_ATPase activity in series [2] of 7.11. In addition, the efflux ratio in series [3] (MDCK-MDR1, Ratio_Papp) is 165. The same molecule gave a Papp B→A in series [4] (MDCK-MDR1, Papp) of 49.5 ×10⁻⁶ cm/s.

In the case of `CNS(=O)(=O)Cc1ccc2[nH]cc(CCN(C)C)c2c1`, the Papp A→B in series [1] (MDCK-MDR1, Papp) was determined as 0.953 ×10⁻⁶ cm/s. In series [2], this molecule returned a Ratio_ATPase activity of 1.23. For the same molecule, in series [3] (MDCK-MDR1, Ratio_Papp), the efflux ratio was found to be 1.37. For the same molecule, the Papp B→A in series [4] (MDCK-MDR1, Papp) turned out to be 1.3 ×10⁻⁶ cm/s.

The molecule `CN1CCC[C@@H]1Cc1c[nH]c2ccc(CCS(=O)(=O)c3ccccc3)cc12` had a Papp A→B in series [1] (MDCK-MDR1, Papp) of 1.84 ×10⁻⁶ cm/s. The Ratio_ATPase activity in series [2] was 2.22. The efflux ratio in series [3] (MDCK-MDR1, Ratio_Papp) was found to be 31.5. The Activity result in series [5] was “substrate [+]”. The Papp B→A in series [4] (MDCK-MDR1, Papp) amounted to 57.8 ×10⁻⁶ cm/s.

Turning to `CCOc1ccc(-c2nc3cc(-c4nc5cc(N6CCN(C)CC6)ccc5[nH]4)ccc3[nH]2)cc1`, in series [1] (MDCK-MDR1), the Papp A→B came out at 0.335 ×10⁻⁶ cm/s. Moreover, in series [2], the Ratio_ATPase activity is 0.86. The efflux ratio in series [3] (MDCK-MDR1) was 7.75. For the same molecule, the Papp B→A in series [4] (MDCK-MDR1) is 2.6 ×10⁻⁶ cm/s.

As to `COc1cc2c(cc1OC)CN(CCc1ccc(NC(=O)c3cccc4c(=O)c5cccc(OC)c5[nH]c34)cc1)CC2`, in series [1] (MDCK-MDR1, Papp), the Papp A→B was found to be 0.212 ×10⁻⁶ cm/s. In addition, the Papp B→A in series [4] (MDCK-MDR1, Papp) is 1.86 ×10⁻⁶ cm/s.

In turn, `CC(C)(C)NC(=O)[C@@H]1CN(Cc2cccnc2)CCN1C[C@@H](O)C[C@@H](Cc1ccccc1)C(=O)N[C@H]1c2ccccc2C[C@H]1O.O` gave an apparent permeability from apical to basolateral (Papp A→B) in series [1] (MDCK-MDR1, Papp) of 0.869 ×10⁻⁶ cm/s. The molecule further returned a Ratio_ATPase activity in series [2] of 9.59. Also, the efflux ratio in series [3] (MDCK-MDR1, Ratio_Papp) was found to be 20.3. Moreover, the Activity entry in series [5] is “substrate [+]”. Also, the Papp B→A in series [4] (MDCK-MDR1, Papp) was 17.6 ×10⁻⁶ cm/s.

On to `Cc1c(O)cccc1C(=O)N[C@@H](CSc1ccccc1)[C@H](O)CN1C[C@H]2CCCC[C@H]2C[C@H]1C(=O)NC(C)(C)C`, for which the Papp A→B in series [1] (MDCK-MDR1, Papp) worked out at 3.81 ×10⁻⁶ cm/s. In series [2], this molecule returned a Ratio_ATPase activity of 5.21. Also, the efflux ratio in series [3] (MDCK-MDR1, Ratio_Papp) stood at 8.86. Also, the Papp B→A in series [4] (MDCK-MDR1, Papp) was found to be 33.8 ×10⁻⁶ cm/s.

Turning to `Nc1nc(N)c2nc(-c3ccccc3)c(N)nc2n1`, the Papp A→B in series [1] (MDCK-MDR1, Papp) was 18.5 ×10⁻⁶ cm/s. The molecule also registered a Ratio_ATPase activity in series [2] of 1.12. In series [3] (MDCK-MDR1, Ratio_Papp), the efflux ratio came out at 0.99. This molecule also registered a Papp B→A in series [4] (MDCK-MDR1, Papp) of 18.4 ×10⁻⁶ cm/s.

For `CN(C)CCC(c1ccc(Cl)cc1)c1ccccn1` (racemic) [CHLORPHENIRAMINE], in series [1] (MDCK-MDR1, Papp), the Papp A→B was 56.2 ×10⁻⁶ cm/s. The same molecule registered a Ratio_ATPase activity in series [2] of 0.97. Also, in series [3] (MDCK-MDR1, Ratio_Papp), the efflux ratio amounted to 1.14. Further, the Papp B→A in series [4] (MDCK-MDR1, Papp) was determined as 64.2 ×10⁻⁶ cm/s.

In series [1] (MDCK-MDR1, Papp), `NC12CC3CC(CC(C3)C1)C2` [AMANTADINE] returned an apical-to-basolateral permeability (Papp A→B) of 18.6 ×10⁻⁶ cm/s. This molecule also showed a Papp B→A in series [4] (MDCK-MDR1, Papp) of 15.7 ×10⁻⁶ cm/s.

With `CCN(CC)CCCC(C)Nc1ccnc2cc(Cl)ccc12` (stereo not given) [CHLOROQUINE], the Papp A→B in series [1] (MDCK-MDR1, Papp) stood at 4.49 ×10⁻⁶ cm/s. The same molecule came in with a Ratio_ATPase activity in series [2] of 0.77. For the same molecule, the efflux ratio in series [3] (MDCK-MDR1, Ratio_Papp) was 3.83. Moreover, the Activity entry in series [5] is “is not a substrate [-]”. In series [4] (MDCK-MDR1, Papp), the apparent permeability from basolateral to apical (Papp B→A) turned out to be 17.2 ×10⁻⁶ cm/s.

In series [1] (MDCK-MDR1, Papp), `CN(C)CCCN1c2ccccc2Sc2ccc(Cl)cc21` [CHLORPROMAZINE] gave a Papp A→B of 43.8 ×10⁻⁶ cm/s. Besides, in series [2], the Ratio_ATPase activity is 2.42. For the same molecule, in series [3] (MDCK-MDR1, Ratio_Papp), the efflux ratio is 1.09. The Papp B→A in series [4] (MDCK-MDR1, Papp) was 47.7 ×10⁻⁶ cm/s.

`CN/C(=N/CCSCc1nc[nH]c1C)NC#N` [CIMETIDINE] showed a Papp A→B in series [1] (MDCK-MDR1) of 1.23 ×10⁻⁶ cm/s. Moreover, the Ratio_ATPase activity in series [2] was 1.31. For the same molecule, the efflux ratio in series [3] (MDCK-MDR1) was found to be 2.19. Also, in series [4] (MDCK-MDR1), the Papp B→A was 2.69 ×10⁻⁶ cm/s.

In turn, `C[C@@H]1C[C@H]2[C@@H]3CCC4=CC(=O)C=C[C@]4(C)[C@@]3(F)[C@@H](O)C[C@]2(C)[C@@]1(O)C(=O)CO` [DEXAMETHASONE] came in with a Papp A→B in series [1] (MDCK-MDR1, Papp) of 4.35 ×10⁻⁶ cm/s. In series [2], this molecule returned a Ratio_ATPase activity of 1.15. The efflux ratio in series [3] (MDCK-MDR1, Ratio_Papp) is 12.4. This molecule also returned a Papp B→A in series [4] (MDCK-MDR1, Papp) of 53.7 ×10⁻⁶ cm/s.

In the case of `COc1ccc([C@@H]2Sc3ccccc3N(CCN(C)C)C(=O)[C@@H]2OC(C)=O)cc1` [DILTIAZEM], in series [1] (MDCK-MDR1, Papp), the Papp A→B was 41.3 ×10⁻⁶ cm/s. Further, in series [2], the Ratio_ATPase activity was 2.64. For the same molecule, in series [3] (MDCK-MDR1, Ratio_Papp), the efflux ratio was found to be 1.64. This molecule gave a Papp B→A in series [4] (MDCK-MDR1, Papp) of 67.6 ×10⁻⁶ cm/s.

Molecule `COc1cccc2c1C(=O)c1c(O)c3c(c(O)c1C2=O)C[C@@](O)(C(=O)CO)C[C@@H]3O[C@H]1C[C@H](N)[C@H](O)[C@H](C)O1` [DOXORUBICIN] yielded a Papp A→B in series [1] (MDCK-MDR1, Papp) of 1.45 ×10⁻⁶ cm/s. Also, the Ratio_ATPase activity in series [2] is recorded as 0.95. Further, the efflux ratio in series [3] (MDCK-MDR1, Ratio_Papp) stood at 0.67. Besides, the Papp B→A in series [4] (MDCK-MDR1, Papp) was 0.973 ×10⁻⁶ cm/s.

The molecule `CC[C@H]1OC(=O)[C@H](C)[C@@H](O[C@H]2C[C@@](C)(OC)[C@@H](O)[C@H](C)O2)[C@H](C)[C@@H](O[C@@H]2O[C@H](C)C[C@H](N(C)C)[C@H]2O)[C@](C)(O)C[C@@H](C)C(=O)[C@H](C)[C@@H](O)[C@]1(C)O` [ERYTHROMYCIN] yielded a Papp A→B in series [1] (MDCK-MDR1, Papp) of 0.094 ×10⁻⁶ cm/s. The molecule also displayed a Papp B→A in series [4] (MDCK-MDR1, Papp) of 1.35 ×10⁻⁶ cm/s.
